What was measured:
Assay type in all cases: cell-based, murine
[1] = tested on: NIH 3T3 stable transfectants; experiment: Analysis of FGF1-induced spheroid formation; conditions: for spheroid formation: 10 ng/ml FGF1, 10 U/ml heparin
Description: Clonal populations of NIH 3T3 stable transfectants were resuspended and grown in media containing 10% BCS, 10% BCS containing 1 μM PD166866, 10% BCS containing 10 ng/ml recombinant human FGF1 and 10 U/ml heparin or 10% BCS containing 10 ng/ml recombinant human FGF1, 10 U/ml heparin and 1 μM PD166866 as indicated in the figure legend. Approximately 2×10^5 cells were plated per well (6-well dish) and three days after plating, phase-contrast micrographs of the cells were taken.

[2] = tested on: NIH 3T3 stable transfectants; experiment: Colony formation in soft agar; conditions: for effect on colonies in soft agar: 10 ng/ml FGF1
Description: Clonal populations of NIH 3T3 cells stably transfected with vector control, soluble Jagged1 (sJ1), constitutively active Notch1 (caN1), constitutively active Notch2 (caN2), dominant negative Notch 1 (dnN1), dominant negative Notch 2 (dnN2), an oncogenic mutant of FGF1 engineered with the FGF4 signal peptide sequence (hst-β (FGF4):FGF1), or constitutively active oncogenic Ras construct (caRas), were plated on 6 cm tissue culture dishes with 0.5% agar in an overlay containing DMEM (Gibco BRL) media, 10% bovine calf serum (BCS; Hyclone), and 0.33% agar at 1.5×10^3 cells/dish. As indicated, some dishes were also treated with 1 μM of the FGFR1-specific inhibitor, PD166866 (Panek et al., 1998, J. Pharmacol. Exp. Ther. 286: 569-577) and/or 10 ng/ml recombinant human FGF1 and 10 U/ml heparin (Sigma). Cells were fed with 0.5 ml of media with or without FGF1 and/or the FGFR1-specific inhibitor every 3 days as indicated. Twenty days after plating, colonies were stained with p-iodonitrotetrazolium violet (Sigma) for visualization. Quantitation of colony formation was achieved by counting all p-iodonitrotetrazolium violet-stained colonies consisting of more than 4 cells under a Zeiss Stemi SVII Apo dissecting microscope.

[3] = tested on: Jagged1 in NIH 3T3 stable transfectants; experiment: Immunoblot analysis of Jagged1 expression; conditions: 10 ng/ml FGF1 and 10 U/ml heparin; all stable lines examined
Description: Vector control, SJ1, CaN1, J1, Hstβ(FGF4):FGF1 and sJ1:caN1 stable NIH 3T3 cell transfectants were plated on tissue culture dishes in either normal growth media (DMEM (Gibco BRL) media, 10% bovine calf serum (BCS; Hyclone)) or normal growth media containing 10 ng/ml recombinant FGF1 and 10 U/ml heparin. Cells were harvested at confluency (based on status of vector control cells grown in normal growth media).
Because hst-β(FGF4):FGF1 stable transfectants and the sJ1 transfectants grown in FGF1-containing media form spheroids, all cells were harvested by scraping in the presence of the growth media dn then the cells/growth media was collected into sterile 15 ml conical tubes. Cells were pelleted by centrifugation at 800×g for 5′ at 4° C. After centrifugation, the supernatant was removed and the cell pellets were washed 3× with 1×PBS. Cells were lysed in 500 μl in 20 mM tris, pH 7.5 containing 300 mM sucrose, 60 mM KCl, 15 mM NaCl, 0.5 mM EDTA, 0.5% (v/v) Triton X-100 1 mM Phenymethyl sulfonyl flouride, 0.1% SDS, 2 μg/ml aprotinin, 10 μg/ml aprotinin, 10 μg/ml leupeptin, and 1 mM sodium orthovanadate for 15 minutes on ice. Cell lysates were pelleted and the supernatant containing soluble proteins removed.
Samples were normalized to protein concentration using the BCA Protein Assay Kit (Pierce). […]

[4] = tested on: caN1/CSL transcription in NIH 3T3 transfectants; experiment: Transient transfection assay of CSL-regulated transcription; conditions: 1, 2.5, 5 or 10 ng/ml FGF1
Description: NIH 3T3 cells were plated onto fibronectin-coated (10 μg/cm2) 12-well tissue culture dishes and transiently transfected at approximately 80% confluency with 500 ng of a Luciferase construct activated by 4 tandem copies of the CSL (CBF1) response element (Hsieh et al. 1996, Mol. Cell. Biol. 16: 952-959), 100 ng of the TK Renilla (Promega) construct as an internal control for transfection efficiency, and 500 ng of either vector control, sJ1 or caN1 constructs using Fugene 6 (Roche) per manufacturer's instructions. For analysis of caN1 activity in the background of NIH 3T3 stable lines, vector control, caN1, sJ1 and hst-β(FGF4):FGF1 stable transfectants were plated onto fibronectin-coated (10 μg/cm2) 12-well tissue culture dishes and transiently transfected with 500 ng of the CSL-Luciferase construct, 100 ng of the TK Renilla (Promega) construct as an internal control for transfection efficiency, and 200 ng of caN1. […] The cells were harvested 48 hours after the media change and Luciferase/Renilla activity was measured using Promega's Dual-Luciferase Reporter Assay System. The efficiency of transcription was measured and normalized in relationship to the activity of pRL-TK Renilla and the activity is reported as the ratio of Luciferase/Renilla activity. […]

[5] = tested on: Swiss 3T3 cells expressing a dominant-negative FGFR1 mutant; experiment: DNA synthesis assay, (3H)-thymidine autoradiography; conditions: 10 ng/ml FGF1 plus 10 units/ml heparin
Description: A combination of (^3H)-thymidine autoradiography and immunohistochemistry was used to evaluate the levels of DNA synthesis in Swiss 3T3 cells expressing a dominant-negative FGFR1 mutant. Swiss 3T3 cells were plated at 50% confluency on glass coverslips precoated with fibronectin (10 μg/cm^2) for 24 hours. The cells were transfected with the pCS2 vector expressing a dominant-negative X. laevis FGFR1 deletion mutant lacking the FGFR1 intracellular domain (a gift from Dr. R. Friesel) using the Fugene 6 reagent (Roche). After 24 hours, the medium was changed to DMEM containing 0.25% BCS and following a 48 hour incubation in low BCS, the cells were stimulated with either 10 μg/ml of α-thrombin, 10% BCS or 10 ng/ml of recombinant FGF1 plus 10 units/ml of heparin. After stimulation for 24 hours, (^3H)-thymidine (NEN; 1 μCi/ml) was added to the medium and cells were incubated for 12 hours and fixed with 4% neutral formaldehyde. […] The percentage of (^3H)-labeled nuclei among the dnFGFR1-positive and dnFGFR1-negative cells was quantitated using an inverted Olympus microscope.
Thus, a dominant-negative (dn) FGFR1 construct was expressed in Swiss 3T3 cells and their proliferative index measured in the presence and absence of exogenous thrombin.

[6] = tested on: Notch-dependent CSL1 activity in full-length Jagged1 NIH 3T3 cell transfectants; experiment: Dual Luciferase Reporter Assay of CSL1-dependent transcription

Molecule: FGF1: recombinant human fibroblast growth factor 1, added with heparin
- spheroid formation ([1]; Notch-repressed cells (sJ1, dnN1)): formed multicellular, spheroid-like structures
- spheroid formation ([1]; vector control and caN1 transfectants): did not form spheroids
- effect on colonies in soft agar ([2]; caN1 and vector control transfectants): either no effect or only resulted in the formation of sparse and very small colonies
- effect on colonies in soft agar ([2]; sJ1 and dnN1 transfectants): greatly exaggerated the size of the colonies
- effect on Jagged1 expression [3]: increased Jagged1 expression
- effect on caN1/CSL transcription [4]: repressed caN1/CSL transcription in a dose-dependent fashion
- reduction by dnFGFR1 expression of the ability to induce replicating nuclei [5]: approximately 70%
- CSL1-dependent transcription, of the control level ([6]; 10 ng/ml exogenous FGF1): approximately 25%

Molecule: COc1cc(OC)cc(-c2cc3cnc(N)nc3nc2NC(=O)NC(C)(C)C)c1 [PD166866]
- effect on FGF1-induced spheroid formation ([1]; 1 μM PD166866, sJ1, dnN1 and hst-β (FGF4):FGF1 stable transfectants): completely abolished
- effect on colony formation ([2]; 1 μM PD166866, caRas cells): no effect
- effect on FGF1-mediated colony formation ([2]; 1 μM PD166866, sJ1, dnN1 and hst-β (FGF4):FGF1 transfectants): substantially reduced
- effect on small colony growth ([2]; 1 μM PD166866, sJ1 and dnN1 in the absence of FGF1): inhibited

Molecule: heparin [reference compound]
- effect of heparin on thrombin-dependent repression of CSL1-dependent transcription ([6]; heparin 5 units/ml with thrombin 10 μg/ml): able to potentiate
- effect on CSL1-dependent transcription ([6]; heparin by itself): ineffective
- effect on CSL1-dependent transcription ([6]; heparin in the presence of 10 μM TRAP): ineffective

— patent US7501281B2, “Compositions, methods and kits related to thrombin, Notch signaling and stamatogenesis and growth of stem cells” (Maine Medical Center Research Institute, priority 2003, dated 2009)
